Results taken from patent EP4289427A1, “DIHYDRO[1,8]NAPHTHYRIDIN-7-ONE AND PYRIDO[3,2-B][1,4]OXAZIN-3-ONE FOR USE IN TREATING CANCER, AND METASTASES IN PARTICULAR” (Anagenesis Biotechnologies, priority 2022, dated 2023).
pIC50: −log10 of the molar value.

How the values were obtained:
RD cells [1] = assay: Differentiation of RD cells into myotubes (alpha-actinin staining); assay type: cell-based, Human; conditions: 7 days, Figure 3
Procedure: RD cells are cancer cells of muscle origin that arose from myogenic precursors that fail to complete muscle differentiation. One strategy to stop their progression is to differentiate them into myotubes.
To allow differentiation, RD cells were seeded at a density of 3500 cells/well in a 384-well plate coated with collagen type I, in DMEM (4,5g/L glucose) with L-Gln (cat.no. 41965-039 from Gibco) supplemented with 5% of knockout serum replacement (cat.no. 10828-028 from Gibco), 1% PenStrep (Gibco), 1% MEM NEAA (Gibco) and 0.1 mM 2-mercaptoethanol (Gibco) (hereafter "K5 medium"). Compounds to be tested were then added onto the cells and incubated for 7 days at 37°C. On day 7, cells were fixed with 4% paraformaldehyde solution and immunostained for α-actinin (cat.no. EA-53 from Sigma, at 1/30000).

RD cells [2] = assay: Cytotoxicity assay (CellTiter-Glo 2.0) on RD cells; assay type: cell-based, Human; conditions: for pIC50: Homo sapiens
Outline: (§1)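 Viability read-out: ATP-based luminescence (CellTiter-Glo 2.0, 10 min, RT, dark) after compound exposure of freshly seeded cells for a cell-line-specific duration; relative IC50 derived from viability.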

4T1 cells [3] = assay: Epithelial-mesenchymal transition marker expression by qRT-PCR; assay type: cell-based, Mouse; design: key: ↗: increased expression; ↘: decreased expression; =: unchanged expression levels; conditions: 24 hours, expression normalized against RPL13
From the text: The epithelial-mesenchymal transition (hereafter "EMT") is a process by which epithelial cells lose their cell polarity and cell-cell adhesion while gaining migratory and invasive properties to become mesenchymal stem cells. EMT is commonly measured by quantifying both epithelial and mesenchymal marker's expression by quantitative reverse-transcription polymerase chain reaction (hereafter "qRT-PCR"). EMT inhibition is observed when epithelial markers are stable or increased while mesenchymal markers are decreased.
4T1 cells were treated with compounds to be tested or DMSO for 24 hours. 4T1 cells were then harvested directly in NucleoZol lysis buffer (cat. no. 740404.200 from Macherey-Nagel), according to the manufacturer's instructions. Total RNA was extracted using the NucleoSpin RNA set for NucleoZol (cat. no. 740406.50 from Macherey-Nagel). The quantity and purity of RNA was determined using a Quickdrop (Molecular Devices). RT-PCR was performed on 500 ng total RNA using iScript gDNA clear cDNA synthesis Kit (cat.no. 1725035 from Biorad). The qPCR was run on a QuantStudio 5 real time thermocycler (Applied Biosystems), with PowerUp SYBR Green Master Mix (cat.no. A25742 from Fisher Scientific) and the primers listed in Table 16.
Expression data of EMT markers have been normalized against expression data of the housekeeping gene RPL13.

MDA-MB-231 cells [4] = assay: Scratch (wound healing) assay, cell migration; assay type: cell-based, Human; conditions: 24 hours, Figure 1
Procedure: Cell migration is involved in several pathological cancer processes such as tumor invasion, neoangiogenesis and metastasis. Scratch (or wound healing) assay is a method to study two-dimensional cell migration in vitro. It is based on the observation that cells growing in a monolayer migrate to reestablish cell contacts after a mechanical scratch wound.
The MDA-MB-231 cells were seeded into a 24-well plate and grown to confluent density. A scrape was made in each well using a pipette tip. Then, the cells monolayers were incubated for 2 hours with 5 µg/ml mitomycin C to stop cell proliferation. The cells were treated with the compounds to be tested for 24 hours. The cells were stained using CellMask Green actin tracking stain (cat.no. A57246 from Fisher Scientific) at time zero and at endpoint. Pictures were acquired using a fluorescence microscope (IXM from Molecular Device). The scratch area was measured with the ImageJ software. The recovery of the scratch area was calculated as a percentage of the scratch area at time zero.

EoL-1 cells = assay: Cytotoxicity assay (CellTiter-Glo 2.0) on EoL-1 cells; assay type: cell-based, Human; conditions: incubation 1 day; for pIC50: Homo sapiens, EOL1, 24 h
Outline: as §1

HUVECs = assay: Tube formation assay (anti-angiogenic activity); assay type: cell-based, human; conditions: incubation 16 to 18 hours; for pIC50: Homo sapiens, HUVEC
Outline: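 HUVECs plated at 5000 cells/well on reduced growth factor basement membrane matrix, then exposed to compounds for 16 to 18 hours at 37°C. Cells stained with calcein-AM; tube networks imaged by confocal fluorescence microscopy and quantified.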

4T1 cells [5] = assay: Colony forming (clonogenic) assay; assay type: cell-based, Mouse; conditions: 6 days of treatment, Figure 2
Procedure: Cancer stem cells are characterized by their ability to undergo virtually unlimited divisions. Colony forming assay (or clonogenic assay) is an in vitro assay designed to assess capability of single cells to grow into large colonies through clonal expansion.
4T1 cells were seeded at a density of 500 cells per well of six-well plates in 4T1 medium. Compounds to be tested were added 24 hours after seeding. After 6 days of treatment, the cells were fixed in 4% PFA and stained with 1% aqueous solution of crystal violet. Pictures of the entire wells were acquired, and the area of the positives colonies was evaluated by ImageJ software (Wayne Rasband; NIH).

4T1 cells [6] = assay: Cytotoxicity assay (CellTiter-Glo 2.0) on 4T1 cells; assay type: cell-based, Mouse; conditions: incubation 2 days; for pIC50: Mus musculus, 48 h
Outline: as §1

MDA-MB-231 cells [7] = assay: Cytotoxicity assay (CellTiter-Glo 2.0) on MDA-MB-231 cells; assay type: cell-based, Human; conditions: incubation 3 days; for pIC50: Homo sapiens, 72 h
Outline: as §1

Src kinase family = assay: Human phospho-kinase array in RD cells; assay type: cell-based; conditions: 1 hour at its IC50, Figure 4
Procedure: Inhibition of kinases can be observed by quantifying both their phosphorylation levels and the phosphorylation level of downstream proteins in their pathways.
RD cells were cultured in vitro and expanded for 4 days prior to the experiments (see example 3.1 and table 6a for details). The assay was performed using the human phospho-kinase array kit (cat.no. ARY003C from R&D Systems), according to the manufacturer's instructions. The RD cells were treated with compound #032 for 1 hour at its IC50 (previously defined) and lysed with lysis buffer supplemented with aprotinin, leupeptin and pepstatin. The total protein extract was titrated using a micro-BCA kit (cat. no. 23235 from Thermofisher Scientific). The array membranes were blocked and incubated overnight at 4 °C with 500 µg of total protein. Then, the detection antibodies were added for 2 hours followed by the HRP-conjugated Streptavidin solution for 30 minutes. The chemiluminescent signal was finally developed by incubating the membranes with the chemi-reagent mix and placed in the Fusion-FX acquisition system (Vilber Instruments). Data were analyzed using ImageJ software (Wayne Rasband; NIH).

Mia PaCa-2 = assay: Cytotoxicity assay on KRAS mutated Mia PaCa-2 cells; assay type: cell-based, Human; conditions: Mia PaCa-2, KRAS mutated, incubation 2 days
Procedure: (§2) Cytotoxicity assays consist in treating cells with compounds and assessing remaining viability after a defined incubation time, depending on the cell line. CellTiter-Glo® 2.0 reagent allows viability measurement by quantification of ATP present, which is an indicator of metabolically active cells.
(§3) The cancer cell lines were cultivated in their respective growth medium (see tables 6a and 6b). On day 0 of the cytotoxicity assay, the cells were harvested and seeded into a 384-well plate at a defined density in their respective growth medium (see tables 6a and 6b). Compounds to be tested were then added onto the cells and incubated for a defined duration (see tables 6a and 6b). Following incubation, CellTiter-Glo® 2.0 reagent (cat.no. G9241 from Promega) was added into the wells (vol/vol, according to the manufacturer's recommendations), plates were gently shaken and incubated for 10 minutes in the dark at room temperature. Bioluminescence was then measured with a multimode plate reader (Victor Nivo from Perkin Elmer), and cell viability and relative IC50 were determined. Table 6a: Cancer cell characteristics, culture and cytotoxic assay conditions

SW480 = assay: Cytotoxicity assay on KRAS mutated SW480 cells; assay type: cell-based, Human; conditions: incubation 2 days
Procedure: as §2, §3

PSN1 = assay: Cytotoxicity assay on KRAS mutated PSN1 cells; assay type: cell-based, Human; conditions: incubation 2 days
Procedure: as §2, §3

HEC-1A = assay: Cytotoxicity assay on KRAS mutated HEC-1A cells; assay type: cell-based, Human; conditions: incubation 2 days
Procedure: as §2, §3

A549 = assay: Cytotoxicity assay on KRAS mutated A549 cells; assay type: cell-based, Human; conditions: incubation 2 days
Procedure: as §2, §3

HCT116 = assay: Cytotoxicity assay on KRAS mutated HCT116 cells; assay type: cell-based, Human; conditions: incubation 2 days
Procedure: as §2, §3

RPMI 8226 = assay: Cytotoxicity assay on KRAS mutated RPMI 8226 cells; assay type: cell-based, Human; conditions: RPMI 8226, KRAS mutated, incubation 2 days
Procedure: as §2, §3

For `CSc1cc(Oc2ccnc3c2CCC(=O)N3)ccc1NC(=O)Nc1cc(C(C)(C)C)nn1-c1ccc(C)nc1` [Compound 032, 1-[5-tert-butyl-2-(6-methyl-3-pyridyl)pyrazol-3-yl]-3-[2-methylsulfanyl-4-[(7-oxo-6,8-dihydro-5H-1,8-naphthyridin-4-yl)oxy]phenyl]urea], the differentiation into myotubes (RD cells [1]) was “dose-dependent differentiation into myotubes”, the Cytotoxicity (RD cells [2]; 2 day-treatment) was “++ (50% ≤ cytotoxicity < 85%)” and the Cytotoxicity (RD cells [2]; 4 day-treatment) was “+++ (cytotoxicity ≥ 85%)”. For the same compound, the pIC50 (RD cells [2]; 48 h, 2 day-treatment) was 5.30 to 6.00, the pIC50 (RD cells [2]; 96 h, 4 day-treatment) was 5.30 to 6.00 and the “Epithelial markers E-cadherin” value (4T1 cells [3]) was “↗”. For the same compound, the “Epithelial markers EpCAM” value (4T1 cells [3]) was “↗”, the “Mesenchymal markers Fibronectin” value (4T1 cells [3]) was “=” and the “Mesenchymal markers Vimentin” value (4T1 cells [3]) was “↘”. The “migration in the scratch assay” value (MDA-MB-231 cells [4]) was “inhibition of their migration”, the pIC50 (EoL-1 cells) was 8.00 to 9.00 and the Cytotoxicity (EoL-1 cells) was “+++ (cytotoxicity ≥ 85%)”. For the same compound, the pIC50 (HUVECs) was greater than 7.00, the Angiogenesis inhibition (HUVECs) was “+++ (angiogenesis inhibition ≥ 80%)” and the colony growth (4T1 cells [5]) was “inhibition of colony growth”. The pIC50 (4T1 cells [6]) was greater than 6.00, the Cytotoxicity (4T1 cells [6]) was “+++ (cytotoxicity ≥ 85%)” and the pIC50 (MDA-MB-231 cells [7]) was greater than 6.00. For the same compound, the Cytotoxicity (MDA-MB-231 cells [7]) was “++ (50% ≤ cytotoxicity < 85%)” and the “phosphorylation of members of the Src kinase family and their downstream proteins” value (Src kinase family) was “decreased phosphorylation”.
`CSc1cc(Oc2ccnc3c2OCC(=O)N3)ccc1NC(=O)Nc1cc(C(C)(C)C)no1` [Compound 020, 1-(3-tert-butylisoxazol-5-yl)-3-[2-methylsulfanyl-4-[(3-oxo-4H-pyrido[3,2-b][1,4]oxazin-8-yl)oxy]phenyl]urea] was tested, and the pIC50 (Mia PaCa-2; Homo sapiens, 48 h) was greater than 6.00, the Cytotoxicity (Mia PaCa-2) was “+++ (cytotoxicity ≥ 85%)” and the Cytotoxicity (RD cells [2]; 2 day-treatment) was “++ (50% ≤ cytotoxicity < 85%)”. The Cytotoxicity (RD cells [2]; 4 day-treatment) was “++ (50% ≤ cytotoxicity < 85%)”, the pIC50 (RD cells [2]; 48 h, 2 day-treatment) was 5.30 to 6.00 and the pIC50 (RD cells [2]; 96 h, 4 day-treatment) was greater than 6.00. For the same compound, the “Epithelial markers E-cadherin” value (4T1 cells [3]) was “↗”, the “Epithelial markers EpCAM” value (4T1 cells [3]) was “=” and the “Mesenchymal markers Fibronectin” value (4T1 cells [3]) was “↘”. For the same compound, the “Mesenchymal markers Vimentin” value (4T1 cells [3]) was “↘”, the pIC50 (EoL-1 cells) was greater than 9.00 and the Cytotoxicity (EoL-1 cells) was “+++ (cytotoxicity ≥ 85%)”. For the same compound, the pIC50 (SW480; Homo sapiens, 48 h) was greater than 6.00, the Cytotoxicity (SW480) was “++ (50% ≤ cytotoxicity < 85%)” and the pIC50 (PSN1; Homo sapiens, 48 h) was greater than 6.00. For the same compound, the Cytotoxicity (PSN1) was “+++ (cytotoxicity ≥ 85%)”, the pIC50 (HEC-1A; Homo sapiens, 48 h) was greater than 6.00 and the Cytotoxicity (HEC-1A) was “++ (50% ≤ cytotoxicity < 85%)”. For the same compound, the pIC50 (HUVECs) was greater than 7.00, the Angiogenesis inhibition (HUVECs) was “+++ (angiogenesis inhibition ≥ 80%)” and the pIC50 (A549; Homo sapiens, 48 h) was greater than 6.00. For the same compound, the Cytotoxicity (A549) was “++ (50% ≤ cytotoxicity < 85%)”, the pIC50 (4T1 cells [6]) was 5.30 to 6.00 and the Cytotoxicity (4T1 cells [6]) was “+++ (cytotoxicity ≥ 85%)”. The pIC50 (HCT116; Homo sapiens, HCT-116, 48 h) was greater than 6.00, the Cytotoxicity (HCT116) was “+++ (cytotoxicity ≥ 85%)” and the pIC50 (MDA-MB-231 cells [7]) was greater than 6.00. For the same compound, the Cytotoxicity (MDA-MB-231 cells [7]) was “++ (50% ≤ cytotoxicity < 85%)”, the pIC50 (RPMI 8226; Homo sapiens, 48 h) was greater than 6.00 and the Cytotoxicity (RPMI 8226) was “++ (50% ≤ cytotoxicity < 85%)”.
